Entries after “also recorded” stand apart in the source; their conditions may differ. *1 amine or outer side, *2 acyl side, *3 side chain or, on linkers, in order; H or OH if unused. Where a SMILES comes first, the peptide text is derived from it. Where no end group is shown, it is not given here. [ ]: non-standard residue; d: D form. The star is where a group is joined. pNA = O=[N+]([O-])c1ccc(N*)cc1; Tos = Cc1ccc(S(=O)(=O)*)cc1; CO = O=C([*:1])[*:2]
Tests used:
Human plasma = conditions: in vivo
Lys-gingipain [1] = biological target: T1, Lys-gingipain (Porphyromonas gingivalis, UniProt B2RLK2, A715G/D467N/G568E/I573V/L455V); format: biochemical
Arg-gingipain [2] = format: biochemical, Porphyromonas gingivalis
Arg-gingipain [3] = conditions: cited from earlier work
Lys-gingipain [4] = biological target: T1, Lys-gingipain; format: biochemical; remark: listed apart in the source
sheep red blood cells = format: cell-based
Lys-gingipain [5] = biological target: T1, Lys-gingipain; format: biochemical; remark: listed apart in the source
anti-peptide antibody = conditions: rabbit, in vivo
anti-protein antibodies = conditions: rabbit, in vivo

c1cnc2c(c1)ccc1cccnc12
effect on VPE by Lys-gingipain complex-treated human plasma (Human plasma): increased

CC(C)[C@H](NC(=O)[C@H](CCCNC(=N)N)NC(=O)N[C@@H](Cc1ccccc1)C(=O)O)C(=O)N[C@H](C=O)CCCNC(=N)N [Antipain] ({Phe-CO}-Arg-Val-Arg-aldehyde)
% Activity (Lys-gingipain [1]): 98% | inhibition of Lys-gingipain activity (in words) (Lys-gingipain [1]): failed to inhibit; also recorded: not sensitive to inhibition; also recorded: resistant to inhibition | inhibition of Arg-gingipain (in words) (Arg-gingipain [2]): effective inhibitors

CC(C)C[C@H](NC(=O)[C@H]1O[C@@H]1C(=O)O)C(=O)NCCCCN=C(N)N [E-64, trans-epoxysuccinyl-L-leucylamide-(4-guanidino) butane]
% Activity (Lys-gingipain [1]): 100% | inhibition of Lys-gingipain activity (in words) (Lys-gingipain [1]): failed to inhibit Lys-gingipain at all; also recorded: not sensitive to inhibition; also recorded: resistant to inhibition | inhibition of Arg-gingipain, previously shown (Arg-gingipain [3]): inhibit Arg-gingipain, but not in the normal equimolar manner

O=C(O)CN(CCN(CC(=O)O)CC(=O)O)CC(=O)O [EDTA, ethylenediamine-tetraacetic acid]
% Activity (Lys-gingipain [1]): 90% | inhibition of Lys-gingipain activity (in words) (Lys-gingipain [1]): failed to inhibit; also recorded: not sensitive to inhibition; also recorded: resistant to inhibition; also recorded: insensitive | inhibition of Arg-gingipain (in words) (Arg-gingipain [2]): effective inhibitors

NC(N)=NCCCC(NC(=O)C1CCCN1C(=O)C(N)Cc1ccccc1)C(=O)CCl (stereo not drawn) [FPRCK, Phe-Pro-Arg-CK]
% Activity (Lys-gingipain [1]): 5% | inhibition of Lys-gingipain activity (in words) (Lys-gingipain [1]): effective inhibitors of both enzymes; also recorded: sensitivity | inhibition of Arg-gingipain (in words) (Arg-gingipain [2]): effective inhibitors of both enzymes

NCC(=O)NCC(=O)O [Gly--Gly, Glycyl-glycine] (H-Gly-Gly-OH)
% Activity (Lys-gingipain [1]): 50% | inhibition of Lys-gingipain activity (in words) (Lys-gingipain [1]): inhibitory; also recorded: inhibited | stimulation of hydrolysis of Bz-L-Arg-pNa by Arg-gingipain (Arg-gingipain [2]): strongly stimulates

CC(C)C[C@H](NC(=O)[C@H](N)C(C)C)C(=O)N[C@@H](CCCCN)C(=O)Nc1ccc([N+](=O)[O-])cc1 [HD--Val--Leu--Lys--pNa, D-Val-Leu-Lys-pNA] (H-[dV]-Leu-Lys-pNA)
Vmax (Lys-gingipain [4]): 133 mmol/min

CC(C)[C@@H](N)C(=O)N[C@@H](Cc1ccccc1)C(=O)N[C@@H](CCCCN)C(=O)Nc1ccc([N+](=O)[O-])cc1 [HD--Val--Phe--Lys--pNa, H-D-Val-Phe-Lys-pNa] (H-[dV]-Phe-Lys-pNA)
Vmax (Lys-gingipain [4]): 180 mmol/min

NC(=O)CI [Iodoacetamide]
inhibition of Lys-gingipain activity (in words) (Lys-gingipain [1]): inhibited; also recorded: sensitivity

O=C(O)CI [Iodoacetate]
inhibition of Lys-gingipain activity (in words) (Lys-gingipain [1]): inhibited; also recorded: sensitivity

CC(=O)N[C@@H](CC(C)C)C(=O)N[C@@H](CC(C)C)C(=O)N[C@H](C=O)CCCNC(=N)N [Leupeptin]
% Activity (Lys-gingipain [1]): 100% | inhibition of Lys-gingipain activity (in words) (Lys-gingipain [1]): failed to inhibit; also recorded: not sensitive to inhibition; also recorded: resistant to inhibition; also recorded: insensitive | inhibition of Arg-gingipain (in words) (Arg-gingipain [2]): effective inhibitors

CCN1C(=O)C=CC1=O [N-Ethylmaleimide]
inhibition of Lys-gingipain activity (in words) (Lys-gingipain [1]): inhibited

CN1C(=O)C=CC1=O [N-methylmaleimide]
inhibition of Lys-gingipain activity (in words) (Lys-gingipain [1]): sensitivity

Cc1ccc(S(=O)(=O)NCC(=O)N2CCC[C@H]2C(=O)N[C@@H](CCCCN)C(=O)Nc2ccc([N+](=O)[O-])cc2)cc1 [N-p-tosyl-Gly--Pro--Lys--pNa, N-p-tosyl-Gly-Pro-Lys-pNa] (Tos-Gly-Pro-Lys-pNA)
Vmax (Lys-gingipain [4]): 215 mmol/min | ranking as substrate by ratio Vmax/Km (Lys-gingipain [4]): best substrate

O=S(=O)(F)Cc1ccccc1 [Phenylmethylsulfonyl fluoride]
% Activity (Lys-gingipain [1]): 100% | inhibition of Lys-gingipain activity (in words) (Lys-gingipain [1]): not sensitive to inhibition; also recorded: resistant to inhibition

Cc1ccc(S(=O)(=O)N[C@@H](CCCCN)C(=O)CCl)cc1 [TLCK, tosyl-L-lysine chloromethyl ketone]
% Activity (Lys-gingipain [1]): 0% | inhibition of Lys-gingipain activity (in words) (Lys-gingipain [1]): effective inhibitors of both enzymes; also recorded: sensitivity | inhibition of Arg-gingipain (in words) (Arg-gingipain [2]): effective inhibitors of both enzymes | Hemagglutinating Titer of Gingipain-1 with effector (sheep red blood cells): NHA | effect on the hemagglutinating activity of purified fractions (in words) (sheep red blood cells): neither did treatment by the irreversible proteinase inhibitor TLCK

NCCCC[C@H](NC(=O)OCc1ccccc1)C(=O)Nc1ccc([N+](=O)[O-])cc1 [Z--L--Lys--pNa, Z-L-Lysine-p-Nitroanilide]
Vmax (Lys-gingipain [4]): 40 mmol/min

[Cl-].[Cl-].[Zn+2] [ZnCl2]
inhibition of Lys-gingipain activity (in words) (Lys-gingipain [1]): failed to inhibit | inhibition of Arg-gingipain (in words) (Arg-gingipain [2]): effective inhibitors

N=C(N)NCCC[C@H](N)C(=O)O [arginine]
Hemagglutinating Titer of Culture fluid with effector (sheep red blood cells): NHA | Hemagglutinating Titer of Gingipain-1 with effector (sheep red blood cells): NHA | Hemagglutinating Titer of HGP with effector (sheep red blood cells): NHA | Hemagglutinating Titer of Lys-gingipain with effector (sheep red blood cells): NHA | effect on the hemagglutinating activity of purified fractions (in words) (sheep red blood cells): inhibited by arginine

N[C@@H](CS)C(=O)O [cysteine]
Hemagglutinating Titer of Gingipain-1 with effector (sheep red blood cells): NHA | effect on the hemagglutinating activity of purified fractions (in words) (sheep red blood cells): no effect | concentration required for full activity (Lys-gingipain [5]): 50 mM | effect on enzyme (Lys-gingipain [5]): denatured | effectiveness as reducing agent for activation of the enzyme (Lys-gingipain [5]): most effective reducing agent | time after which activity could be detected (Lys-gingipain [5]): 30 s | time to full activation (Lys-gingipain [5]): 5 min

NCCCC[C@H](N)C(=O)O [lysine]
Hemagglutinating Titer of Gingipain-1 with effector (sheep red blood cells): NHA

N=C(N)c1ccc(N)cc1 [p-Aminobenzamidine]
% Activity (Lys-gingipain [1]): 100% | inhibition of Lys-gingipain activity (in words) (Lys-gingipain [1]): failed to inhibit | inhibition of Arg-gingipain (in words) (Arg-gingipain [2]): effective inhibitors

MAP-attached peptide: first 15 N-Terminal amino acids of 60 kDa catalytic subunit attached to the multiple antigen peptide (MAP) resin (DVYTDHGDLYNTPVR; not fully specified)
anti-peptide antibody titer (anti-peptide antibody): high | antibody response against the protein (anti-protein antibodies): quite low

B1: soybean trypsin inhibitor: soybean trypsin inhibitor (protein, UniProt P01070 25-205, looked up)
Trypsin inhibitor A: DFVLDNEGNPLENGGTYYILSDITAFGGIRAAPTGNERCPLTVVQSRNELDKGIGTIISSPYRIRFIAEGHPLSLKFDSFAVIMLCVGIPTEWSVVEDLPEGPAVKIGENKDAMDGWFRLERVSDDEFNNYKLVFCPQQAEDDKCGDIGISIDHDDGTRRLVVSKNKPLVVQFQKLDKESL
effect on VPE by Lys-gingipain complex-treated human plasma (Human plasma): inhibited

Reference: patent publication US5707620A (priority 1995, dated 1998)
